According to patent US11332483B2, “Naphthoquinone containing gold carbene complexes and methods of uses thereof” (BOARD OF REGENTS, THE UNIVERSITY OF TEXAS SYSTEM, priority 2017, dated 2022):
Where two headings read alike, the source gives them in different places.

Columns and labels:
[1] = Electrochemical analysis (differential pulse voltammetry) in DMSO; assay type: physicochemical; details: 0.1M [N(nBu)4][PF6], 0.1 mM analyte, vs SCE
Procedure: [Cl] (Guth et al., 2011; Gómez et al., 2003).
1,3-Dimesitylnapthoquinimidazolium chloride (Sanderson et al., 2006; Tennyson et al., 2010), (1,3-dimesityl-4,5-naphthoquino-imidazol-2-ylidene)-silver(I) chloride (Sanderson et al., 2006; Tennyson et al., 2010), (C4H2S)AuCl (Hashmi, et al., 2010) were prepared according to the literature procedures. All other reagents were purchased from commercial sources and used as received, including: [((CH3)3Si)2N]Na (NaHMDS) and silver(I) oxide. CD2Cl2 (99.9%) was purchased from Acros Laboratories in glass ampules and used as received. Solvents were either dried with a solvent purification system from the Inert Innovative Technology, Inc. (dichloromethane, diethyl ether, hexanes, tetrahydrofuran and toluene) or freshly distilled over 3 Å molecular sieves and degassed using three consecutive freeze-pump-thaw cycles prior to use. UV-vis spectra were obtained at ambient temperature with a Hewlett-Packard 8452A diode array spectrophotometer with molar absorptivities reported in M^−1 cm^−1. ^1H and ^13C NMR spectra were recorded on Bruker 300 MHz spectrometer. Spectra were referenced to the residual solvent as an internal standard, for ^1H NMR: CD2Cl2, 5.32 ppm and ^13C NMR: CD2Cl2, 53.84 ppm. High-resolution mass spectra (HRMS) were obtained with an Agilent Technologies 6530 Accurate Mass Q-TOF LC/MS (ESI) and are reported as m/z (relative intensity). Electroanalytical measurements were performed on a CHI620E electrochemical workstation using a silver wire quasi-reference electrode, a platinum disk working electrode and a Pt wire auxiliary electrode in a three-electrode cell under an atmosphere of nitrogen. […] All potentials listed herein were determined by differential pulse voltammetry and referenced to a saturated calomel electrode (SCE) by shifting ferrocene^0/+ to 0.435 V (DMSO) (Aranzaes et al., 2006). Spectroelectrochemistry measurements were obtained at ambient temperature with a custom designed three-electrode cell using Hewlett-Packard 8452A diode array spectrophotometer and CHI620E. Elemental analyses were performed by Midwest Microlab, LLC in Indianapolis, Ind. […] Trypsin (Hyclone SH30236.01) and Dulbecco's Phosphate Buffer Saline (Sigma R5886) were used for general cell maintenance and harvesting. Cell lines were obtained from the ATCC (A549 and PC-3) and Prof. Zahid Siddik at MD Anderson (A2780 and A2780CP). Thiazolyl blue tetrazolium bromide (Alfa Aesar L11939) was used for cell proliferation assays. Cell culture plastic ware consisted of generic T-75 flasks, 80.5 mm diameter culture dishes, and treated 96-well plates.

[2] = tested on: A549 lung cancer cells; test: Cell proliferation (MTT) assay in A549 lung cancer cells; assay type: cell-based, human; details: for Fold Difference relative to 1: A549 IC50 relative to complex 1
Procedure: (§1) Cells were harvested and seeded into 96-well culture plates (Costar 07-200-90) in 100 μL of culture media. They were allowed to incubate overnight at 37° C. in the presence of 5% CO2. A549 was seeded at a density of 1000 cells/well, A2780 at 2500 cells/well, A2780CP at 3000 cells/well, and PC-3 at 2000 cells/well. The next day, appropriate serial dilutions of drug stocks in culture media were made. To each well of a 96 well plate was added 100 μL of the appropriate solution. After a total of three days, a […] aliquot of 3 mg/mL tetrazolium dye, 344,5-dimethylthiazol-2-yl)-2,5-diphenyltetrazolium bromide (Alfa Aesar L11939) was added to each well, followed by a 4 hr incubation period at 37° C. The medium was then removed, the resulting formazan was dissolved in […] DMSO and the respective absorbances were measured at 560-650 nm using a microplate reader (Molecular Devices, Sunnyvale, Calif.). Absorbance values were corrected for background and then normalized to wells containing untreated cells to allow for plate-to-plate comparisons. The data are shown as mean inhibition of proliferation or growth as a percentage of control cells and are from 2-3 replicate experiments. Resulting dose response curves were subjected to linear regression analysis (Origin by OriginLab, Inc.) for determination of IC50 values.

[3] = tested on: thioredoxin reductase (TrxR) in A549 cells; test: Lipoate reduction assay of thioredoxin reductase activity in live cells; assay type: cell-based, human; details: for TrxR activity by lipoate reduction, time and dose dependence: A549, in words; for inhibition of TrxR (lipoate reduction): 6 h
Procedure: To assess whether any or all of the present gold complexes could serve as TrxR inhibitors, standard tests involving the reduction of the oxidized form of the cell-permeable cofactor lipoate to its corresponding reduced form, dihydrolipoate, were carried out. […] [Cl] and 5 (cocktail), auranofin, and doxorubicin for 6 h. Post treatment, the live cells were monitored colorimetrically over 180 min for their ability to reduce lipoate (FIG. 5A).
Cells were harvested and seeded at a density of 10,000 cells/well A549 in 96-well culture plates. They were then incubated overnight at 37° C. and 5% CO2. The next day, appropriate serial dilutions of drug stock in culture media were performed, and 100 μL of the appropriate solution were added to each well. Cells were returned to the incubator for 6 h. Afterwards, the liquid was then removed from each well by vacuum aspiration and replaced by 100 μL of 5 mM lipoate (Tokyo Chemical Industry Co., Ltd. L0207) and 1 mM DTNB (Acros Organics 117540050) in HBSS (Life tech 14025-092). The absorbance of each well at […] was recorded immediately and once every 20 min for three h on a microplate reader (Molecular Devices, Sunnyvale, Calif.). Plates were covered with aluminum foil between readings.

[4] = tested on: A549 cells; test: Detection of intracellular ROS by flow cytometry (CM-H2DCFDA); assay type: cell-based, human; details: for intracellular ROS increase: A549, dose responsive, 6 h, in words
Procedure: To establish whether or not the complexes of this disclosure would increase intracellular ROS levels, A549 cells were treated with each complex in a dose responsive manner.
Tumor cells (1×10^6) were plated in a 6-well plate overnight and then incubated with media containing various complexes described at concentrations of 0.625-2.5 μM. Control cells were treated with vehicle only. After a 6 h. incubation, the cells were washed with PBS, detached with 0.250 mL 1× trypsin, collected in a 15 mL conical tube, and pelleted by centrifugation (3 min @ 300 g) at 5° C. The resulting pellet was again washed 2× with cold PBS and pelleted at 5° C. […] The cells were then pelleted, washed with 2 mL PBS, and re-suspended in PBS containing 2 μg/mL propidium iodide (PI, Chemodex P0023) for a final cell concentration of 0.5×10^6 cells/mL. Control samples of unstained cells, cells stained with only CM-H2DCFDA, and cells stained with only PI were also prepared. Each sample was added to one well of a 96-well plate. Samples were then subjected to FACS analysis using a Millipore Guava easyCyte 8 and analyzed using the Guava inCyte software.

[5] = tested on: Panc-02 cells
[6] = tested on: 2780CP ovarian (multi-drug resistant); test: Cell proliferation (MTT) assay in 2780CP ovarian cells; assay type: cell-based; details: Table 3; error is standard error of the mean
Procedure: (§2) Further anti-proliferation studies were carried out with complex 1 and its naphthoquinone component 4[H][Cl] using the following cell lines: A2780 ovarian (a wt-p53 cell line sensitive to platinum treatment), 2780CP ovarian (isogenic to A2780 but expressing multi-drug resistance (MDR)), and PC-3 prostate (p53 null) (Table 3).
as §1, with “The data are shown as mean inhibition of proliferation or growth as a percentage of control cells and are from 2-3 replicate experiments. Resulting dose response curves were subjected to linear regression analysis (Origin by OriginLab, Inc.) for determination of IC50 values.” left out

[7] = tested on: PC-3 prostate (p53 null); test: Cell proliferation (MTT) assay in PC-3 prostate cells; assay type: cell-based; details: Table 3; error is standard error of the mean
Procedure: as §2
as §1, with “The data are shown as mean inhibition of proliferation or growth as a percentage of control cells and are from 2-3 replicate experiments. Resulting dose response curves were subjected to linear regression analysis (Origin by OriginLab, Inc.) for determination of IC50 values.” left out

[8] = tested on: A2780 ovarian (wt-p53, platinum sensitive); test: Cell proliferation (MTT) assay in A2780 ovarian cells; assay type: cell-based; details: Table 3; error is standard error of the mean
Procedure: as §2
as §1, with “The data are shown as mean inhibition of proliferation or growth as a percentage of control cells and are from 2-3 replicate experiments. Resulting dose response curves were subjected to linear regression analysis (Origin by OriginLab, Inc.) for determination of IC50 values.” left out

[9] = tested on: A549 cells; details: A549, 24 h
Procedure: Control cells were treated with vehicle only. At 24 h, the media was collected and the cells were washed with PBS. The PBS washing was collected and the attached cells were then subjected to 0.5× trypsin (diluted with PBS) for 2 min. All media and washings were collected, pelleted by centrifugation (3 min @ 300 g) and washed twice with cold PBS. […] After this, 100 μL of cell suspension was added to 1.5 mL centrifuge tubes, followed by 5 μL each of Annexin V-FITC and propidium iodide (PI, 50 μg/mL) solution. Control samples of unstained cells, cells stained with only Annexin V-FITC, and cells stained with only PI were also prepared. Samples were allowed to incubate in the dark for 15 min at ambient temperature. After incubation, each sample was diluted with 200 μL of Annexin V binding buffer, and the resulting 300 μL sample was added to one well of a 96-well plate. Samples were then subjected to FACS analysis using a Millipore Guava easyCyte 8 and analyzed using Guava inCyte software.

[10] = tested on: A549 lung cancer cells; test: ICP-MS detection of intracellular Au (cellular uptake)
Procedure: Roughly 7−8×10^6 cells were grown to 70-80% confluence in T-75 cell culture flasks (Thermo 130190) and treated with respective compound in RPMI medium supplemented with 10% FBS and antibiotics for the desired incubation time. The medium was then removed and cells were washed with 8 mL 1× warm PBS. 2 mL 1×PBS was then added to each flask, and the cells were removed by scraping. Each cell suspension was then pipetted into a clean, labeled 15 mL centrifuge tube (Thermo 339650). Cells were pelleted by centrifuging at 1,000 rpm for 5 min in an Eppendorf 5804 with a swing-bucket rotor. The supernatant was removed by vacuum aspiration, and the pellet was resuspended in 50 μL autoclaved deionized water. Suspension/lysates were then kept at −80° C. until further use. After thawing, the lysates were then sonicated using a Branson Digital Sonifier, and 5 μL aliquots were taken for determination of protein content of the sample. Lysates were digested with 80 μL aqua regia and heated to 65° C. for 1 h. Digested lysates were diluted with 4 mL 3% Trace Metal Grade HCl and gold content was measured on a Perkin Elmer NexION 300× set to detect gold at 197 m/z. Gold concentrations were quantified using the linear range of a standard curve generated by serial dilution of an ICP-MS gold standard (Ricca MSAU1KH-100) in 3% HCl. Values were then normalized to protein content as determined using a Modified Lowry Protein Assay Kit (Thermo 23240) and known concentrations of bovine serum albumin (Fisher 9048-46-8).
The Modified Lowry Assay was used to determine the protein content of each sample for normalization purposes. The standard curve for each run was made from a 2-fold serial dilution of fresh 5 mg/mL BSA solution. Aliquots were diluted to within the linear range of the standard curve using autoclaved DI water, and subjected to the Modified Lowry Assay in round-bottomed 96-well clear plates (Fisher 12565500). […] All other aspects of the procedure were as detailed in the microplate procedure instructions that come with the kit.

[11] = A549 lung cancer cells, MTT, 72 h, read-out: IC50
[12] = A549, higher concentrations (1.25-5.0 μM)
[13] = A549, low concentrations (0.1-0.6 μM)

SMILES	E1/2 (V) DPV, first reduction, formation of semiquinone radical [1] [V]	E1/2^b (V) DPV, second reduction, formation of quinone dianion [1] [V]	Fold Difference relative to 1 [2]	TrxR activity by lipoate reduction, time and dose dependence [3]	intracellular ROS increase [4]	IC50 [2, 11] [nM]	inhibition of TrxR (lipoate reduction) [3, 12]	inhibition of TrxR (lipoate reduction) [3, 13]	further results
Cc1cc(C)c(-n2c3c([n+](-c4c(C)cc(C)cc4C)[c]2[Au-][c]2n(-c4c(C)cc(C)cc4C)c4c([n+]2-c2c(C)cc(C)cc2C)C(=O)c2ccccc2C4=O)C(=O)c2ccccc2C3=O)c(C)c1.[Cl-] [Compound 2]	−0.46	−1.31	1	performed similarly	performed similarly	–	–	–	presence of CRT on cells ([5]; Panc-02, 0.1 μM): 6.1±1.6 % of cells; presence of CRT on cells ([5]; Panc-02, 1.0 μM): 33.4±5.8 % of cells
Cc1cc(C)c(-n2c[n+](-c3c(C)cc(C)cc3C)c3c2C(=O)c2ccccc2C3=O)c(C)c1.[Cl-] [Compound 4[H][Cl], 1,3-Dimesitylnaphthoquinimidazolium chloride, reference compound]	−0.38	−1.15	13.6	–	–	990 ± 120	became evident	–	IC50 ([2]; A549 lung cancer cells, MTT, 72 h, listed as 4, read-out: IC50): 994 nM; IC50 ([2]; Table 3, error is standard error of the mean, read-out: IC50 A549 Lung): 994 ± 120 nM; fluorescence associated cell population shift (intracellular ROS increase) ([4]; A549, 2.5 μM, 6 h incubation): ~11 fold; IC50 [6]: 626 ± 117 nM; IC50 [7]: 136 ± 20 nM; IC50 [8]: 159 ± 58 nM
COc1cccc2c1C(=O)c1c(O)c3c(c(O)c1C2=O)C[C@@](O)(C(=O)CO)C[C@@H]3O[C@H]1C[C@H](N)[C@H](O)[C@H](C)O1 [Doxorubicin, doxorubicin]	–	–	1.41	no inhibition of activity	minimal or no ROS increase	–	remained inactive	little to no inhibition	induction of apoptosis (annexin-V/PI) [9]: provided similar results in both the early and late stage apoptotic quadrants; IC50 ([2]; Homo sapiens, A549 lung cancer cells, MTT, 72 h, read-out: IC50): 103 ± 23 nM
O=C1[O][Pt]2([NH][C@@H]3CCCC[C@H]3[NH]2)[O]C1=O [oxaliplatin, reference compound]	–	–	–	–	–	–	–	–	presence of CRT on cells ([5]; Panc-02, 300 μM): 18.6±2.8 % of cells
CC(=O)OC[C@H]1O[C@@H]([S-])[C@H](OC(C)=O)[C@@H](OC(C)=O)[C@@H]1OC(C)=O.CCP(CC)CC.[Au+] [Auranofin, auranofin]	–	–	22.9	–	minimal or no ROS increase	1670 ± 50	–	inhibition of TrxR was apparent	increase in intracellular Au concentrations as compared to complex 1 [10]: 2-5 fold
Cc1cc(C)c(-n2c3c([n+](-c4c(C)cc(C)cc4C)[c]2[Au-][Cl])C(=O)c2ccccc2C3=O)c(C)c1 [Compound 3, (1,3-Dimesityl-4,5-naphthoquino-imidazol-2-ylidene)-gold(I) Chloride]	−0.47	−1.31	165	–	minimal or no ROS increase	12100	remained inactive	–	intracellular Au levels (ICP-MS) [10]: no intracellular Au was detected
